Values joined by “and” are separate entries in the source; they are usually repeats but may differ in a detail not shown here. Equal values may be shown once. Inconclusive results and toxic doses are left out. Rule for the calls: active = survival T/C of 150% or more; inactive = T/C below 125% in these data.
System: P388 leukemia ip, CD2F1 mice, survival T/C
Experiment: NCI In Vivo Anticancer Drug Screen. Data for tumor model P388 Leukemia (intraperitoneal) in CD2F1 (CDF1) mice
Conditions: endpoint: median survival time, higher = longer survival
Procedure, shortened: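 Mice carrying the transplanted tumor received test compound or vehicle. Survival was recorded in each group, and the value is the treated-group measurement divided by that of the vehicle-treated control group.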

[1] = dose: 12.5 mg/kg/injection, schedule: Q01DX009 (ip), vehicle: saline with Tween-80
[2] = dose: 25.0 mg/kg/injection, schedule: Q01DX009 (ip), vehicle: saline with Tween-80
[3] = dose: 100.0 mg/kg/injection, schedule: Q04DX003 (ip), vehicle: saline with Tween-80
[4] = dose: 50.0 mg/kg/injection, schedule: Q01DX005 (ip), vehicle: saline
[5] = dose: 100.0 mg/kg/injection, schedule: Q01DX005 (ip), vehicle: saline
[6] = dose: 200.0 mg/kg/injection, schedule: Q01DX005 (ip), vehicle: saline
[7] = dose: 50.0 mg/kg/injection, schedule: Q01DX009 (ip), vehicle: saline with Tween-80
[8] = dose: 100.0 mg/kg/injection, schedule: Q01DX009 (ip), vehicle: saline with Tween-80
[9] = dose: 200.0 mg/kg/injection, schedule: Q01DX009 (ip), vehicle: saline with Tween-80
[10] = dose: 50.0 mg/kg/injection, schedule: Q04DX003 (ip), vehicle: saline
[11] = dose: 100.0 mg/kg/injection, schedule: Q04DX003 (ip), vehicle: saline
[12] = dose: 200.0 mg/kg/injection, schedule: Q04DX003 (ip), vehicle: saline

Measured: T/C

COc1cc2c(cc1O)CCCCC2O (stereo not given)
inactive: dose: 6.25 mg/kg/injection, schedule: Q01DX009 (ip), vehicle: DMSO 94 % of control | dose: 12.5 mg/kg/injection, schedule: Q01DX009 (ip), vehicle: DMSO 102 % of control | dose: 25.0 mg/kg/injection, schedule: Q01DX009 (ip), vehicle: DMSO 87 % of control | dose: 50.0 mg/kg/injection, schedule: Q01DX009 (ip), vehicle: Klucel (hydroxypropylcellulose) (HPC) 94 % of control | dose: 100.0 mg/kg/injection, schedule: Q01DX009 (ip), vehicle: Klucel (hydroxypropylcellulose) (HPC) 97 % of control | dose: 200.0 mg/kg/injection, schedule: Q01DX009 (ip), vehicle: Klucel (hydroxypropylcellulose) (HPC) 94 % of control

NN1C(=O)C2C3C=CC(C4CC34)C2C1=O (stereo not given)
inactive: dose: 6.25 mg/kg/injection, schedule: Q01DX009 (ip), vehicle: Klucel (hydroxypropylcellulose) (HPC) 100 % of control | dose: 12.5 mg/kg/injection, schedule: Q01DX009 (ip), vehicle: Klucel (hydroxypropylcellulose) (HPC) 110 % of control

Nc1nc(N)c2cc(CCc3ccccc3)ccc2n1
inactive: dose: 6.25 mg/kg/injection, schedule: Q01DX009 (ip), vehicle: saline with Tween-80 95 % of control | [1] 109 % of control | [2] 90 % of control | dose: 50.0 mg/kg/injection, schedule: Q04DX003 (ip), vehicle: saline with Tween-80 104 % of control | [3] 109 % of control

COc1ccc2c(c1OC(C)=O)C1=CC(OC(C)=O)=CCC13CCN(C)C3C2 (stereo not given)
inactive: [4] 102 % of control | [5] 111 % of control | [6] 99 % of control

CN(C)/N=C(\N)c1nnn(C)n1
inactive: dose: 50.0 mg/kg/injection, schedule: Q01DX001 (ip), vehicle: Klucel (hydroxypropylcellulose) (HPC) 106 % of control | dose: 100.0 mg/kg/injection, schedule: Q01DX001 (ip), vehicle: Klucel (hydroxypropylcellulose) (HPC) 101 % of control | dose: 200.0 mg/kg/injection, schedule: Q01DX001 (ip), vehicle: Klucel (hydroxypropylcellulose) (HPC) 100 % of control

Cc1oc(-c2ccccc2)nc1C(N)=O
inactive: [7] 106 % of control and 89 % of control and 95 % of control | [8] 101 % of control and 91 % of control and 96 % of control | [9] 99 % of control and 100 % of control

NNc1ncnc2cccc(Cl)c12
inactive: dose: 60.0 mg/kg/injection, schedule: Q01DX005 (ip), vehicle: saline with Tween-80 94 % of control | dose: 120.0 mg/kg/injection, schedule: Q01DX005 (ip), vehicle: saline with Tween-80 98 % of control | dose: 240.0 mg/kg/injection, schedule: Q01DX005 (ip), vehicle: saline with Tween-80 92 % of control

CCN(CC)CCOC(=O)C1c2ccccc2-c2ccccc21
inactive: dose: 50.0 mg/kg/injection, schedule: Q01DX005 (ip), vehicle: saline + Tween-80 + alcohol 99 % of control | dose: 100.0 mg/kg/injection, schedule: Q01DX005 (ip), vehicle: saline + Tween-80 + alcohol 95 % of control | dose: 200.0 mg/kg/injection, schedule: Q01DX005 (ip), vehicle: saline + Tween-80 + alcohol 103 % of control

CSc1ccc(NC(=S)SCc2ccc3c(c2)OCO3)cc1Cl
inactive: dose: 50.0 mg/kg/injection, schedule: Q01DX009 (ip), vehicle: suspension in saline 105 % of control | dose: 100.0 mg/kg/injection, schedule: Q01DX009 (ip), vehicle: suspension in saline 101 % of control | dose: 200.0 mg/kg/injection, schedule: Q01DX009 (ip), vehicle: suspension in saline 98 % of control

NCC(N)Cn1ccnc1 (stereo not given)
inactive: [10] 93 % of control | [11] 94 % of control | [12] 95 % of control

O=C1NC(c2ccccc2)(c2ccccc2)C(=O)N1CCBr
inactive: dose: 12.5 mg/kg/injection, schedule: Q04DX003 (ip), vehicle: saline 106 % of control | dose: 25.0 mg/kg/injection, schedule: Q04DX003 (ip), vehicle: Klucel (hydroxypropylcellulose) (HPC) 96 % of control | dose: 25.0 mg/kg/injection, schedule: Q04DX003 (ip), vehicle: saline 100 % of control | dose: 50.0 mg/kg/injection, schedule: Q04DX003 (ip), vehicle: Klucel (hydroxypropylcellulose) (HPC) 105 % of control | [10] 105 % of control | dose: 100.0 mg/kg/injection, schedule: Q04DX003 (ip), vehicle: Klucel (hydroxypropylcellulose) (HPC) 100 % of control and 107 % of control | [11] 104 % of control | dose: 200.0 mg/kg/injection, schedule: Q04DX003 (ip), vehicle: Klucel (hydroxypropylcellulose) (HPC) 100 % of control and 96 % of control | dose: 400.0 mg/kg/injection, schedule: Q04DX003 (ip), vehicle: Klucel (hydroxypropylcellulose) (HPC) 98 % of control and 99 % of control

CC(=O)SC1C(=O)N(C)C(SC(C)=O)C(=O)N1C (stereo not given)
inactive: dose: 6.25 mg/kg/injection, schedule: Q01DX009 (ip), vehicle: saline 107 % of control | dose: 12.5 mg/kg/injection, schedule: Q01DX009 (ip), vehicle: saline 110 % of control

CCCCCCC(/C=C/c1ccc(Cl)c(Cl)c1)=N\Nc1ccc(Cl)cc1Cl
inactive: [1] 94 % of control | [2] 94 % of control | [8] 88 % of control | [9] 87 % of control

Cc1cnc2c(N)nn(-c3ccccc3)c2n1
inactive: [3] 95 % of control | dose: 200.0 mg/kg/injection, schedule: Q04DX003 (ip), vehicle: saline with Tween-80 105 % of control

COc1ccc2cc3ccncc3cc2c1OC
inactive: dose: 12.5 mg/kg/injection, schedule: Q01DX009 (ip), vehicle: water 96 % of control | dose: 25.0 mg/kg/injection, schedule: Q01DX009 (ip), vehicle: water 99 % of control | dose: 50.0 mg/kg/injection, schedule: Q01DX009 (ip), vehicle: water 99 % of control | dose: 100.0 mg/kg/injection, schedule: Q01DX009 (ip), vehicle: water 97 % of control | dose: 200.0 mg/kg/injection, schedule: Q01DX009 (ip), vehicle: water 105 % of control

Cc1cncn2ncnc12
inactive: [11] 100 % of control | [12] 95 % of control | dose: 400.0 mg/kg/injection, schedule: Q04DX003 (ip), vehicle: saline 95 % of control

O=C(Nc1ccc([N+](=O)[O-])cc1)Nc1nncs1
inactive: dose: 12.5 mg/kg/injection, schedule: Q01DX009 (ip), vehicle: distilled water + Tween-80 100 % of control | dose: 25.0 mg/kg/injection, schedule: Q01DX009 (ip), vehicle: distilled water + Tween-80 107 % of control and 92 % of control | dose: 50.0 mg/kg/injection, schedule: Q01DX009 (ip), vehicle: distilled water + Tween-80 115 % of control and 119 % of control | dose: 100.0 mg/kg/injection, schedule: Q01DX009 (ip), vehicle: distilled water + Tween-80 119 % of control and 124 % of control | dose: 200.0 mg/kg/injection, schedule: Q01DX009 (ip), vehicle: distilled water + Tween-80 110 % of control

COc1ccc(-c2sc(/N=C/c3cc(Br)cc(Br)c3O)c(C#N)c2C)cc1OC
inactive: [1] 103 % of control | [2] 97 % of control | [7] 99 % of control | [8] 94 % of control

Brc1nsc(SSc2nc(Br)ns2)n1
inactive: dose: 50.0 mg/kg/injection, schedule: Q01DX005 (ip), vehicle: Klucel (hydroxypropylcellulose) (HPC) 103 % of control | dose: 100.0 mg/kg/injection, schedule: Q01DX005 (ip), vehicle: Klucel (hydroxypropylcellulose) (HPC) 103 % of control | dose: 200.0 mg/kg/injection, schedule: Q01DX005 (ip), vehicle: Klucel (hydroxypropylcellulose) (HPC) 102 % of control

O=C1c2ccccc2C(=O)c2cscc21
inactive: [1] 100 % of control | [2] 97 % of control | [7] 97 % of control | [8] 98 % of control

O=C(Nc1ccc(Cl)cc1C(F)(F)F)Oc1ccc(-c2ccccc2)cc1Br
inactive: dose: 50.0 mg/kg/injection, schedule: Q01DX009 (ip), vehicle: saline 95 % of control | dose: 100.0 mg/kg/injection, schedule: Q01DX009 (ip), vehicle: saline 88 % of control | dose: 200.0 mg/kg/injection, schedule: Q01DX009 (ip), vehicle: saline 97 % of control

CC1=C(C)C2C3C(=O)NC(=O)C3C1C1C3C(=O)NC(=O)C3C21 (stereo not given)
inactive: dose: 60.0 mg/kg/injection, schedule: Q01DX005 (ip), vehicle: saline 101 % of control | dose: 120.0 mg/kg/injection, schedule: Q01DX005 (ip), vehicle: saline 101 % of control | dose: 240.0 mg/kg/injection, schedule: Q01DX005 (ip), vehicle: saline 100 % of control

CC(=O)C[n+]1ccccc1Sc1ccccc1C
inactive: dose: 50.0 mg/kg/injection, schedule: Q01DX005 (ip), vehicle: saline with Tween-80 103 % of control

CC(/C=N/NC1=NCCN1)=N/NC1=NCCN1
inactive: [4] 102 % of control | [5] 98 % of control | [6] 99 % of control

— PubChem BioAssay AID330 (DTP/NCI, 2004)
